Laboratory results reported in US20230159606A1, “PHARMACEUTICAL COMPOSITIONS FOR GLUCAGON AND GLP-1 CO-AGONIST PEPTIDES” (MEDIMMUNE LIMITED, priority 2019, published 2023).

Legend:
[1] = test system: all microorganisms; assay: Preservative efficacy test (PET), overall compliance with European Pharmacopeia / USP criteria; assay type: cell-based
Protocol: (§4) In preservative efficacy assays, a short study was performed whereby two microorganisms were used to assess the microbial efficacy of the prepared formulations (Staphylococcus aureus and E. coli). Samples were tested at t=0 (bulk) and t=1 month after storage at 25° C.
A multivariate robustness study was carried out to investigate the impact of m-cresol content, sodium phosphate concentration, and m-cresol content on the preservative efficacy of the 5 mg/mL multi-dose formulation. […] A total of 20 bulk formulations were prepared and tested in accordance with the European Pharmacopeia Edition 10.0 Section 5.1.3 and the United States Pharmacopeia 42 <51>.

[2] = test system: Staphylococcus aureus; assay: Preservative efficacy test (PET; Ph. Eur. / USP), S. aureus; settings: 5.5 mg/mL MEDI0382 multi-dose formulation
Protocol: as §4
Preservative efficacy testing (PET) was also performed on 2 and 5 mg/ml MEDI0382 formulations containing 20 mM sodium phosphate buffer, 220 mM sorbitol, and m-Cresol (at the concentrations indicated in Table 35) at pH.
A total of 20 bulk formulations were prepared and tested in accordance with the European Pharmacopeia Edition 10.0 Section 5.1.3 and the United States Pharmacopeia 42 <51>.

[3] = Dynamic Light Scattering (DLS): particle size, Z-average, hydrodynamic diameter; assay type: physicochemical; settings: 50 mM PB pH 7.5, 1.85% w/v PG, 0.03% v/v PS80; one month
Protocol: The principles for formulation ranking used in Table 3 were the loss of peptide purity (main area peak/total peak area) at accelerated conditions (purity loss≤3% per 1 week at 40° C., low risk; purity loss>5% week at 40° C.=high risk) and physical stability at 40 or 5° C. (Z-average<10 nm=low risk, >10 nm=medium risk; >100 nm=high risk).
(§1) The six selected formulations were used in a 1-month stability study at refrigerated (2-8° C.) and stressed conditions (37° C.). Samples were assessed at time zero, 2 weeks, and 4 weeks by RP-UPLC, DLS, Visual Inspection, Micro-Flow Imaging (MFI), Size Exclusion Chromatography-Multi-Angle Light Scattering (SEC-MALS).
Purity (RP-UPLC), aggregation (DLS), peptide concentration (A280), High order structure (SEC-MALS)(multiangle (laser) light scattering), Sub-visible particles (MFI), Osmolarity, Conformational stability (Circular dichroism (CD) spectroscopy) and pH tests were conducted. The following temperatures were tested: 5° C., 15° C.; 25° C., 40° C. and −80° C. The following time points were tested: 0, 2 weeks, 1, 2, 3, 6, 9, 12, 24 and 36 months.
In another set of experiments, the impact of sorbitol (0-250 mM), propylene glycol (0-2%), and phenol (0-2%) in a pH range 7-8.2 on the physical stability of MEDI0382 was explored. Physical stability was monitored using DLS (DynaPro plate reader, Wyatt) and the ThT assay.

[4] = MEDI0382 solubility studies (buffers, ionic strength, water, organic solvents, aqueous pH); assay type: physicochemical
Protocol: The aqueous pH solubility of MEDI0382 was also assessed.

[5] = Protocol: (§2) The solubility and pH stability of the GLP-1/glucagon agonist peptide MEDI0382 (FIG. 1) were studied. In particular, solubility was studied in different types of buffers, different buffer ionic strengths, pure water, and organic solvents. The aqueous pH solubility of MEDI0382 was also assessed. The chemical stability (as measured by reverse phase ultra performance liquid chromatography (RP-UPLC)) and secondary structure (as measured by Fourier transform infrared spectroscopy (FTIR) and UV circular dichoism spectroscopy (CD)) were also assessed at various pHs. Furthermore, the effect of pH on the kinetics of MEDI0382 aggregation were also assessed in a thioflavin T binding (ThT) assay.
The effect of excipients on fiber formation was analyzed by evaluating whether or not amino acids and divalent ions could prevent fiber formation at pH 7.5. […] The fiber formation was evaluated using a Thioflavin T binding assay (ThT) assay.
(§3) The fiber formation was again evaluated using a ThT assay. […] Chemical degradation associated with these excipients was also monitored for one month for samples kept at 5° C. and 40° C. using an RP-UPLC assay. […] Particle formation associated with these excipients was also monitored by visual inspection after shaking stress (800 rpm for 4 hours). […]

[6] = remark: listed apart in the source
Protocol: as §2, with “assay. […]” for “assay.”
as §1, with “(SEC-MALS). […]” for “(SEC-MALS).”
as §3

[7] = Visual inspection: gel formation, particles, shaking and freeze/thaw stress; assay type: physicochemical
Protocol: Samples were stressed by temperature and freeze/thaw and analyzed for purity, aggregation, visual inspection, and for the presence of sub-visible particles.
In the freeze/thaw studies, the formulation was tested in the presence or absence of polysorbate 80 (0.3% v/v) with either 2 mg/ml or 5 mg/ml protein. Fresh solutions (glass vials, Type I, transparent) were frozen by three freeze/thaw cycles. After the thawing, samples were kept at 5 and 25° C. for up to 3 weeks and analysed by visual inspection. Samples without freezing were run in parallel as control. In a second study, the container closer compatibility was assessed by using Nalgene HDPE (more suitable for toxicological studies). In this case, only formulation at 5 mg/mL was analysed.
In these experiments, formulations with 0.03% polysorbate 80 were compared to formulations without polysorbate 80. The samples were incubated for 7 days at 50° C. […] All of the samples were then incubated for another 12 days.

[8] = Container compatibility: syringe stability and adsorption to containers; assay type: physicochemical; settings: 50 mM Phosphate buffer, 1.85% (w/v) propylene glycol, pH 7.4
Protocol: The chemical stability of MEDI0382 was tested in 50 mM Phosphate buffer, 1.85% (w/v) of propylene glycol, pH 7.4.
This MEDI0382 formulation was stable in BD Plastipak syringes for at least 4 hours at room temperature.
However, an adsorption of the peptide to the containers at low levels of dosing (below 0.1 mg/ml) was identified. This MEDI0382 formulation was ruled out because the low doses of drug likely to be required to achieve a pharmacological (agonistic) effect could not feasibly be delivered in this way.

[9] = Secondary structure by FTIR and UV circular dichroism; assay type: physicochemical

SMILES: Cc1cccc(O)c1 [Hedinger m-Cresol, m-Cresol]
- European criteria passed (PET) ([1]; highest concentrations tested, S. aureus and E. coli): passed the more stringent European (“A”) criteria

SMILES: Oc1ccccc1 [phenol]
- phenol concentration needed to achieve the less stringent European (“B”) criteria ([1]; with 1 mg/mL MEDI0382): at least 0.44 % w/v
- phenol concentration needed to achieve the less stringent European (“B”) criteria ([1]; with 2 mg/mL MEDI0382): at least 0.54 % w/v

SMILES: Cc1cccc(O)c1 [meta-cresol]
- m-cresol concentration required for a log reduction consistently greater than 3 at 24 hours [2]: ≥ 0.28 % (w/v)
- minimum meta-cresol needed to achieve Ph. Eur. Criteria A [1]: ≥ 0.34 % (w/v)
- minimum meta-cresol needed to consistently achieve Ph. Eur. Criteria B [1]: ≥ 0.27 % (w/v)
- m-cresol concentration at which USP and EP criteria A are consistently met for all microorganisms except Staphylococcus aureus (EP criteria B met) ([1]; 5.5 mg/mL MEDI0382 multi-dose formulation): ≥ 0.24 % (w/v)

SMILES: CCCCCCCCCCCCCCCC(=O)N[C@@H](CCC(=O)NCCCC[C@H](NC(=O)[C@H](CC(=O)O)NC(=O)[C@H](CO)NC(=O)[C@@H](NC(=O)[C@H](Cc1ccccc1)NC(=O)[C@@H](NC(=O)CNC(=O)[C@H](CCC(N)=O)NC(=O)[C@H](CO)NC(=O)[C@@H](N)Cc1c[nH]cn1)[C@@H](C)O)[C@@H](C)O)C(=O)N[C@@H](CO)C(=O)N[C@@H](CCC(=O)O)C(=O)N[C@@H](Cc1ccc(O)cc1)C(=O)N[C@@H](CC(C)C)C(=O)N[C@@H](CC(=O)O)C(=O)N[C@@H](CO)C(=O)N[C@@H](CCC(=O)O)C(=O)N[C@@H](CCCNC(=N)N)C(=O)N[C@@H](C)C(=O)N[C@@H](CCCNC(=N)N)C(=O)N[C@@H](CC(=O)O)C(=O)N[C@@H](Cc1ccccc1)C(=O)N[C@H](C(=O)N[C@@H](C)C(=O)N[C@@H](Cc1c[nH]c2ccccc12)C(=O)N[C@@H](CC(C)C)C(=O)N[C@@H](CCC(=O)O)C(=O)N[C@@H](C)C(=O)NCC(=O)NCC(=O)O)C(C)C)C(=O)O [MEDI0382]
- Z-average values (DLS) [3]: increased sharply over the month at all temperatures, except at −80 °C
- Organic solvent solubility [4]: Low
- Physical state [4]: Amorphous powder, hygroscopic, sensitive
- Preferable buffers solubility [4]: Sodium phosphate and TRIS
- solubility ([4]; buffers of different ionic strengths, read-out: Ranges of ionic strength solubility): ≥ 25 mM
- Aqueous solution pH solubility ([4]; pH 1 to 3 and 6 to 13): increases at pH 1 to 3 and 6 to 13
- Aqueous solution pH solubility ([4]; pH 4.1 to 4.5): Insoluble at pH 4.1 to 4.5, solubility
- optimal pH for physical stability [5]: > 7.8
- pH impact on aggregation kinetics: lag time ([5]; pH 8): kinetics (higher lag time at pH 8 (93 hours),
- pH at which both physical and chemical stability are improved [6]: ≥ 8
- gel formation ([7]; 0.03% polysorbate 80, pH 6.9, 7 days at 50° C.): turned into a solid gel
- gel formation ([7]; 0.03% polysorbate 80, pH 8.3, 7 days at 50° C.): did not
- visual inspection ([7]; 50 mM PB pH 7.5, 1.85% w/v PG, 0.03% v/v PS80, 2-month storage): gel-like-appearance
- gel formation ([7]; without polysorbate 80, pH 6.9, another 12 days): turned into a soft gel
- concentration at which adsorption of the peptide to the containers was identified [8]: below 0.1 mg/ml
- time stable in BD Plastipak syringes ([8]; room temperature): at least 4 hours
- pH impact on secondary structure [9]: increases α-helix in alkaline conditions (7 to 8)
